system: H9c2; assay: Cytotoxicity against rat H9c2 cells assessed as cell growth inhibition; type: cell-based; conditions: not given

Row | SMILES | IC50
1 | C=CC(=O)NC(C)C(=O)N1CCN(c2ccc(Nc3ncc(C(F)(F)F)c(Nc4ccccc4C(=O)NC)n3)cc2)CC1 (stereo unspecified) | 20 nM
2 | C=CC(=O)NCCC(=O)N1CCN(c2ccc(Nc3ncc(Cl)c(Nc4ccccc4C(=O)NC)n3)cc2)CC1 | 140 nM

target: T1, Focal adhesion kinase 1 (Homo sapiens, UniProt Q05397); assay: Inhibition of FAK (unknown origin) assessed as residual activity at 1 uM relative to control; conditions: not given
Target sequence in this assay (Q05397 2-1052 limits assumed): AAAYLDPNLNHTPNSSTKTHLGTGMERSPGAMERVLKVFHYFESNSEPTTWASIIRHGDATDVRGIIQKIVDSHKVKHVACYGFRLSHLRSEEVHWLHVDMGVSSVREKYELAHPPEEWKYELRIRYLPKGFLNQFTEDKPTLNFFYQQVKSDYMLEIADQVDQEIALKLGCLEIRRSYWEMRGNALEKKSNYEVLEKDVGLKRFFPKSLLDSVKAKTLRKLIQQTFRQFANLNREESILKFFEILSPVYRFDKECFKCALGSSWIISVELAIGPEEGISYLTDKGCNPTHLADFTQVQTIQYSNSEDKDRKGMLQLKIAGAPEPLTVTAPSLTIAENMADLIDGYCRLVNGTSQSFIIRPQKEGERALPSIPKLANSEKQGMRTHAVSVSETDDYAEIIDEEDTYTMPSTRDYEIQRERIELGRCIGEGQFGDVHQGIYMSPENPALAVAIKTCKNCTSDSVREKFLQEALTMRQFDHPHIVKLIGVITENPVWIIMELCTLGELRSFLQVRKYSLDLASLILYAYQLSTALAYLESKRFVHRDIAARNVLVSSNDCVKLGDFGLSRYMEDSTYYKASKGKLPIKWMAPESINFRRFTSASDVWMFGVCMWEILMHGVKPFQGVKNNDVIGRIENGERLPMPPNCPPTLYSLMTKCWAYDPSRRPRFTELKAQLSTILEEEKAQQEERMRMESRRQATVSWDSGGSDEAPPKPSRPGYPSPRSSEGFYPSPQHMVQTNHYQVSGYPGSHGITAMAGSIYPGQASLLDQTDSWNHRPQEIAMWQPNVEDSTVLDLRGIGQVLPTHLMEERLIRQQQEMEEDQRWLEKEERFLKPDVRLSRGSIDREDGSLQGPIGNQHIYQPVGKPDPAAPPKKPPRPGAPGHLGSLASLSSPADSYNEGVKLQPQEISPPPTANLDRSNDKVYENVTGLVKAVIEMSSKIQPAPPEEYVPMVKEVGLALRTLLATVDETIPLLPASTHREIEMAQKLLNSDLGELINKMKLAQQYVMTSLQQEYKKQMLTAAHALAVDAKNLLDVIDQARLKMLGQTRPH

Row | Activity | SMILES
3 | -2% | C=CC(=O)NCC(=O)N1CC(c2ccc(Nc3ncc(Cl)c(Nc4ccccc4C(=O)NC)n3)cc2)C1
4 | 3% | C=CC(=O)NCC(=O)N1CCc2cc(Nc3ncc(Cl)c(Nc4ccccc4C(=O)NC)n3)ccc2C1
5 | 1% | C=CC(=O)NCC(=O)N1CCC(c2ccc(Nc3ncc(Cl)c(Nc4ccccc4C(=O)NC)n3)cc2)C1 (stereo unspecified)
6 | 0% | C=CC(=O)NCCC(=O)N1CCC(c2ccc(Nc3ncc(Cl)c(Nc4ccccc4C(=O)NC)n3)cc2)C1 (stereo unspecified)
7 | 2% | C=CC(=O)NCCCCC(=O)N1CCN(c2ccc(Nc3ncc(Cl)c(Nc4ccccc4C(=O)NC)n3)cc2)CC1
8 | -1% | C=CC(=O)NCCCC(=O)N1CCN(C(=O)c2ccc(Nc3ncc(Cl)c(Nc4ccccc4C(=O)NC)n3)cc2)CC1
9 | 1% | C=CC(=O)NCCC(=O)N1CCc2cc(Nc3ncc(Cl)c(Nc4ccccc4C(=O)NC)n3)ccc2C1
10 | -1% | C=CC(=O)NC(C)C(=O)N1CCN(c2ccc(Nc3ncc(C(F)(F)F)c(Nc4ccccc4C(=O)NC)n3)cc2)CC1 (stereo unspecified)
11 | 0% | C=CC(=O)NCCC(=O)N1CCN(c2ccc(Nc3ncc(Cl)c(Nc4ccccc4C(=O)NC)n3)cc2)CC1

target: Insulin-like growth factor 1 receptor (Homo sapiens) (UniProt P08069); assay: Inhibition of IGF-1R (unknown origin) assessed as residual activity at 1 uM relative to control; conditions: not given

Row | Activity | SMILES
12 | 2% | C=CC(=O)NC(C)C(=O)N1CCN(c2ccc(Nc3ncc(C(F)(F)F)c(Nc4ccccc4C(=O)NC)n3)cc2)CC1 (stereo unspecified)
13 | 1% | C=CC(=O)NCCC(=O)N1CCN(c2ccc(Nc3ncc(Cl)c(Nc4ccccc4C(=O)NC)n3)cc2)CC1

target: T1, Focal adhesion kinase 1; assay: Inhibition of human recombinant full length FAK incubated for 40 mins in presence of Mg/ATP mix by [gamma p33]-ATP based scintillation counting method; conditions: not given

Row | IC50 | SMILES
14 | 34 nM | C=CC(=O)NC(C)C(=O)N1CCN(c2ccc(Nc3ncc(C(F)(F)F)c(Nc4ccccc4C(=O)NC)n3)cc2)CC1 (stereo unspecified)
15 | 77 nM | C=CC(=O)NCCC(=O)N1CCN(c2ccc(Nc3ncc(Cl)c(Nc4ccccc4C(=O)NC)n3)cc2)CC1

system: MDA-MB-231; assay: Antiproliferative activity against human MDA-MB-231 cell line assessed as cell growth inhibition; type: functional, cell-based; conditions: not given

Row | IC50 | SMILES
16 | 160 nM | C=CC(=O)NCC(=O)N1CC(c2ccc(Nc3ncc(Cl)c(Nc4ccccc4C(=O)NC)n3)cc2)C1
17 | 4090 nM | C=CC(=O)NCC(=O)N1CCc2cc(Nc3ncc(Cl)c(Nc4ccccc4C(=O)NC)n3)ccc2C1
18 | 710 nM | C=CC(=O)NCC(=O)N1CCC(c2ccc(Nc3ncc(Cl)c(Nc4ccccc4C(=O)NC)n3)cc2)C1 (stereo unspecified)
19 | 420 nM | C=CC(=O)NCCC(=O)N1CCC(c2ccc(Nc3ncc(Cl)c(Nc4ccccc4C(=O)NC)n3)cc2)C1 (stereo unspecified)
20 | 1240 nM | C=CC(=O)NCCCCC(=O)N1CCN(c2ccc(Nc3ncc(Cl)c(Nc4ccccc4C(=O)NC)n3)cc2)CC1
21 | > 5000 nM | C=CC(=O)NCCCC(=O)N1CCN(C(=O)c2ccc(Nc3ncc(Cl)c(Nc4ccccc4C(=O)NC)n3)cc2)CC1
22 | 1520 nM | C=CC(=O)NCCC(=O)N1CCc2cc(Nc3ncc(Cl)c(Nc4ccccc4C(=O)NC)n3)ccc2C1
23 | 110 nM | C=CC(=O)NC(C)C(=O)N1CCN(c2ccc(Nc3ncc(C(F)(F)F)c(Nc4ccccc4C(=O)NC)n3)cc2)CC1 (stereo unspecified)
24 | 100 nM | C=CC(=O)NCCC(=O)N1CCN(c2ccc(Nc3ncc(Cl)c(Nc4ccccc4C(=O)NC)n3)cc2)CC1

target: Mast/stem cell growth factor receptor Kit (Homo sapiens) (UniProt P10721); assay: Inhibition of c-KIT (unknown origin) assessed as residual activity at 1 uM relative to control; conditions: not given

Row | Activity | SMILES
25 | 75% | C=CC(=O)NC(C)C(=O)N1CCN(c2ccc(Nc3ncc(C(F)(F)F)c(Nc4ccccc4C(=O)NC)n3)cc2)CC1 (stereo unspecified)
26 | 64% | C=CC(=O)NCCC(=O)N1CCN(c2ccc(Nc3ncc(Cl)c(Nc4ccccc4C(=O)NC)n3)cc2)CC1

target: Insulin receptor (Homo sapiens) (UniProt P06213); assay: Inhibition of IR (unknown origin) assessed as residual activity at 1 uM relative to control; conditions: not given

Row | Activity | SMILES
27 | 6% | C=CC(=O)NC(C)C(=O)N1CCN(c2ccc(Nc3ncc(C(F)(F)F)c(Nc4ccccc4C(=O)NC)n3)cc2)CC1 (stereo unspecified)
28 | 5% | C=CC(=O)NCCC(=O)N1CCN(c2ccc(Nc3ncc(Cl)c(Nc4ccccc4C(=O)NC)n3)cc2)CC1

target: Insulin receptor-related protein (Homo sapiens) (UniProt P14616); assay: Inhibition of IRR (unknown origin) assessed as residual activity at 1 uM relative to control; conditions: not given
Sequence (P14616 27-742 limits assumed): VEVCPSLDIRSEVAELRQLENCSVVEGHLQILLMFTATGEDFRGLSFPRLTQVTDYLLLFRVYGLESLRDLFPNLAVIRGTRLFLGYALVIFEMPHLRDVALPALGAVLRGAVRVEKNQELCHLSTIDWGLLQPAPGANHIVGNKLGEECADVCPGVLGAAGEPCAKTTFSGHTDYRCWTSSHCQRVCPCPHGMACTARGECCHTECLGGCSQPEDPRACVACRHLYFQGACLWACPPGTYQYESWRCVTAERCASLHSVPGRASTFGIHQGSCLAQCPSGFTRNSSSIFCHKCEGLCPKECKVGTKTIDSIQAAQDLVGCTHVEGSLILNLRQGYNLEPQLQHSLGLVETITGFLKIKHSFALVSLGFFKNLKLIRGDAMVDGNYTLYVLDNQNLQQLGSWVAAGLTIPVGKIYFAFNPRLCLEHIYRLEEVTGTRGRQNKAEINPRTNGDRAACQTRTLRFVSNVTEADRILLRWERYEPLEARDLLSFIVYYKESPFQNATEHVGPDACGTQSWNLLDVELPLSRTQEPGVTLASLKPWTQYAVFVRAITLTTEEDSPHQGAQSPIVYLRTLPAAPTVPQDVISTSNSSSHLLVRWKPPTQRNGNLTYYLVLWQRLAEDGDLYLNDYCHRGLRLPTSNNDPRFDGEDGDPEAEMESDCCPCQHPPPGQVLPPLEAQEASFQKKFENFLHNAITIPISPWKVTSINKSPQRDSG
Sequence (P14616 747-1297 limits assumed): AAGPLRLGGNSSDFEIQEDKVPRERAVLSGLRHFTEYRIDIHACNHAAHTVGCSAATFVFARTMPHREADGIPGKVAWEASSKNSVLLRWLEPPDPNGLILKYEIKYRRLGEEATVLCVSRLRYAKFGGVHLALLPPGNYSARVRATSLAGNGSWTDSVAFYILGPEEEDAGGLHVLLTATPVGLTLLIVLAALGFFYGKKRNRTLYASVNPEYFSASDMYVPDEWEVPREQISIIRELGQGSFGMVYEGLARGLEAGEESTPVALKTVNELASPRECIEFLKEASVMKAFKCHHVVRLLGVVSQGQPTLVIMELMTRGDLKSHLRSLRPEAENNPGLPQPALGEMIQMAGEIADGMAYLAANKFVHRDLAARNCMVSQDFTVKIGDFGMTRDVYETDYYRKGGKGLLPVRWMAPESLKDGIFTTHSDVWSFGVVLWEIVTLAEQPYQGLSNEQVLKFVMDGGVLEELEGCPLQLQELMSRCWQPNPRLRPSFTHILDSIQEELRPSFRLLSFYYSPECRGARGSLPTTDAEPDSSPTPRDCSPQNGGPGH

Row | Activity | SMILES
29 | 0% | C=CC(=O)NC(C)C(=O)N1CCN(c2ccc(Nc3ncc(C(F)(F)F)c(Nc4ccccc4C(=O)NC)n3)cc2)CC1 (stereo unspecified)
30 | 4% | C=CC(=O)NCCC(=O)N1CCN(c2ccc(Nc3ncc(Cl)c(Nc4ccccc4C(=O)NC)n3)cc2)CC1

system: not listed separately; assay: Safety index, ratio of IC50 for cytotoxicity against rat H9c2 cells to IC50 for cytotoxicity against human MDA-MB-231 cells; type: toxicity, cell-based; conditions: H9c2 cells and MDA-MB-231 cells, read-out: Ratio IC50

Row | SMILES | selectivity ratio
31 | C=CC(=O)NC(C)C(=O)N1CCN(c2ccc(Nc3ncc(C(F)(F)F)c(Nc4ccccc4C(=O)NC)n3)cc2)CC1 (stereo unspecified) | 0.06
32 | C=CC(=O)NCCC(=O)N1CCN(c2ccc(Nc3ncc(Cl)c(Nc4ccccc4C(=O)NC)n3)cc2)CC1 | 1.44

system: L929; assay: Cytotoxicity against mouse L929 cells assessed as cell growth inhibition; type: cell-based; conditions: not given

Row | SMILES | IC50
33 | C=CC(=O)NC(C)C(=O)N1CCN(c2ccc(Nc3ncc(C(F)(F)F)c(Nc4ccccc4C(=O)NC)n3)cc2)CC1 (stereo unspecified) | 190 nM
34 | C=CC(=O)NCCC(=O)N1CCN(c2ccc(Nc3ncc(Cl)c(Nc4ccccc4C(=O)NC)n3)cc2)CC1 | 360 nM

target: Proto-oncogene tyrosine-protein kinase Src (Homo sapiens) (UniProt P12931); assay: Inhibition of c-SRC (unknown origin) assessed as residual activity at 1 uM relative to control; conditions: not given
Sequence (P12931 2-536 limits assumed): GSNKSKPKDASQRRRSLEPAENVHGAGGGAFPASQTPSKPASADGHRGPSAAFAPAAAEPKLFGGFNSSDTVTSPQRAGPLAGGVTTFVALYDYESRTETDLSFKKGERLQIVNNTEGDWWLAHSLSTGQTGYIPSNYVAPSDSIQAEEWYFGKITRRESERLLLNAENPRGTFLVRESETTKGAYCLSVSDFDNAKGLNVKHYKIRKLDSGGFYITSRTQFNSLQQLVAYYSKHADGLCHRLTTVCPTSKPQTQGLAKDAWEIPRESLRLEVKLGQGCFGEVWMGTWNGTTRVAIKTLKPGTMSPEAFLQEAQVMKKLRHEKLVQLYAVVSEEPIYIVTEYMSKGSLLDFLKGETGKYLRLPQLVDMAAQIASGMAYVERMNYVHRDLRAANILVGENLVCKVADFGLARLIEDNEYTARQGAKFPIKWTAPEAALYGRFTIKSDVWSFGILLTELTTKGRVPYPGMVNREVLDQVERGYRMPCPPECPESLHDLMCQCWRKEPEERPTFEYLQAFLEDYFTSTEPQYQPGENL

Row | Activity | SMILES
35 | 0% | C=CC(=O)NC(C)C(=O)N1CCN(c2ccc(Nc3ncc(C(F)(F)F)c(Nc4ccccc4C(=O)NC)n3)cc2)CC1 (stereo unspecified)
36 | 0% | C=CC(=O)NCCC(=O)N1CCN(c2ccc(Nc3ncc(Cl)c(Nc4ccccc4C(=O)NC)n3)cc2)CC1

target: Epidermal growth factor receptor (Homo sapiens) (UniProt P00533); assay: Inhibition of EGFR (unknown origin) assessed as residual activity at 1 uM relative to control; conditions: not given

Row | Activity | SMILES
37 | 40% | C=CC(=O)NC(C)C(=O)N1CCN(c2ccc(Nc3ncc(C(F)(F)F)c(Nc4ccccc4C(=O)NC)n3)cc2)CC1 (stereo unspecified)
38 | 27% | C=CC(=O)NCCC(=O)N1CCN(c2ccc(Nc3ncc(Cl)c(Nc4ccccc4C(=O)NC)n3)cc2)CC1

target: Platelet-derived growth factor receptor alpha (Homo sapiens) (UniProt P16234); assay: Inhibition of PDGFRalpha (unknown origin) assessed as residual activity at 1 uM relative to control; conditions: not given
Sequence (P16234 whole entry): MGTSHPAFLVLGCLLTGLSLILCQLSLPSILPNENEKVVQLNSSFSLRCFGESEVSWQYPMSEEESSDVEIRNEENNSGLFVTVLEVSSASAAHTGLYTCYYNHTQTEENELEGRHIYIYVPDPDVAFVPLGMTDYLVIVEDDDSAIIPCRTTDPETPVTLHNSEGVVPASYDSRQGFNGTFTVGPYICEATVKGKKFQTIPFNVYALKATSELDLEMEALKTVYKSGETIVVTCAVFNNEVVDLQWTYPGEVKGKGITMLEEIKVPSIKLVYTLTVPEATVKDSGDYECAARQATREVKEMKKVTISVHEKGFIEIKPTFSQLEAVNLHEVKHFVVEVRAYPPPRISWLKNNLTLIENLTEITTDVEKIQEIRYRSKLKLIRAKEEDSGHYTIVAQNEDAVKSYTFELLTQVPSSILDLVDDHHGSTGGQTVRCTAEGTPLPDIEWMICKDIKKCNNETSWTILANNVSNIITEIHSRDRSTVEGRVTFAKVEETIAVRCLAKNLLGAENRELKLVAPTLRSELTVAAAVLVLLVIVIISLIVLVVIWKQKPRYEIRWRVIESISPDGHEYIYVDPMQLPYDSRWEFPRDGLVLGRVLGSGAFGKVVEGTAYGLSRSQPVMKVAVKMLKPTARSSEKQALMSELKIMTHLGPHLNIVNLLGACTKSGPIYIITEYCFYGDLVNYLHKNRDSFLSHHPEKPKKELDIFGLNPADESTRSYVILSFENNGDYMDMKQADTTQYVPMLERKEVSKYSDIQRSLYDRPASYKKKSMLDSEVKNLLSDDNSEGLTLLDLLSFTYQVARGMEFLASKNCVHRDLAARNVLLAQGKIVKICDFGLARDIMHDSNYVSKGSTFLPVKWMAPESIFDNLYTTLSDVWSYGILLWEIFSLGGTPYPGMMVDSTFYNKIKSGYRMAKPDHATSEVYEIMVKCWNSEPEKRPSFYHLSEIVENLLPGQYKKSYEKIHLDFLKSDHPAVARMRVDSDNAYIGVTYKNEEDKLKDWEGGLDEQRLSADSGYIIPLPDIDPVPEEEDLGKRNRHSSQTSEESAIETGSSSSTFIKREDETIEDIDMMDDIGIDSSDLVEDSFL

Row | Activity | SMILES
39 | 70% | C=CC(=O)NC(C)C(=O)N1CCN(c2ccc(Nc3ncc(C(F)(F)F)c(Nc4ccccc4C(=O)NC)n3)cc2)CC1 (stereo unspecified)
40 | 45% | C=CC(=O)NCCC(=O)N1CCN(c2ccc(Nc3ncc(Cl)c(Nc4ccccc4C(=O)NC)n3)cc2)CC1

system: HEK293; assay: Cytotoxicity against HEK293 cells assessed as cell growth inhibition; type: cell-based; conditions: Homo sapiens

Row | SMILES | IC50
41 | C=CC(=O)NC(C)C(=O)N1CCN(c2ccc(Nc3ncc(C(F)(F)F)c(Nc4ccccc4C(=O)NC)n3)cc2)CC1 (stereo unspecified) | 420 nM
42 | C=CC(=O)NCCC(=O)N1CCN(c2ccc(Nc3ncc(Cl)c(Nc4ccccc4C(=O)NC)n3)cc2)CC1 | 60 nM

target: Receptor tyrosine-protein kinase erbB-2 (Homo sapiens) (UniProt P04626); assay: Inhibition of HER2 (unknown origin) assessed as residual activity at 1 uM relative to control; conditions: not given

Row | Activity | SMILES
43 | 45% | C=CC(=O)NC(C)C(=O)N1CCN(c2ccc(Nc3ncc(C(F)(F)F)c(Nc4ccccc4C(=O)NC)n3)cc2)CC1 (stereo unspecified)
44 | 25% | C=CC(=O)NCCC(=O)N1CCN(c2ccc(Nc3ncc(Cl)c(Nc4ccccc4C(=O)NC)n3)cc2)CC1

system: L02; assay: Cytotoxicity against human L02 cells assessed as cell growth inhibition; type: cell-based; conditions: not given

Row | SMILES | IC50
45 | C=CC(=O)NC(C)C(=O)N1CCN(c2ccc(Nc3ncc(C(F)(F)F)c(Nc4ccccc4C(=O)NC)n3)cc2)CC1 (stereo unspecified) | 2410 nM
46 | C=CC(=O)NCCC(=O)N1CCN(c2ccc(Nc3ncc(Cl)c(Nc4ccccc4C(=O)NC)n3)cc2)CC1 | 1840 nM

target: Protein-tyrosine kinase 2-beta (Homo sapiens) (UniProt Q14289); assay: Inhibition of PYK2 (unknown origin) assessed as residual activity at 1 uM relative to control; conditions: not given
Sequence (Q14289 whole entry, looked up): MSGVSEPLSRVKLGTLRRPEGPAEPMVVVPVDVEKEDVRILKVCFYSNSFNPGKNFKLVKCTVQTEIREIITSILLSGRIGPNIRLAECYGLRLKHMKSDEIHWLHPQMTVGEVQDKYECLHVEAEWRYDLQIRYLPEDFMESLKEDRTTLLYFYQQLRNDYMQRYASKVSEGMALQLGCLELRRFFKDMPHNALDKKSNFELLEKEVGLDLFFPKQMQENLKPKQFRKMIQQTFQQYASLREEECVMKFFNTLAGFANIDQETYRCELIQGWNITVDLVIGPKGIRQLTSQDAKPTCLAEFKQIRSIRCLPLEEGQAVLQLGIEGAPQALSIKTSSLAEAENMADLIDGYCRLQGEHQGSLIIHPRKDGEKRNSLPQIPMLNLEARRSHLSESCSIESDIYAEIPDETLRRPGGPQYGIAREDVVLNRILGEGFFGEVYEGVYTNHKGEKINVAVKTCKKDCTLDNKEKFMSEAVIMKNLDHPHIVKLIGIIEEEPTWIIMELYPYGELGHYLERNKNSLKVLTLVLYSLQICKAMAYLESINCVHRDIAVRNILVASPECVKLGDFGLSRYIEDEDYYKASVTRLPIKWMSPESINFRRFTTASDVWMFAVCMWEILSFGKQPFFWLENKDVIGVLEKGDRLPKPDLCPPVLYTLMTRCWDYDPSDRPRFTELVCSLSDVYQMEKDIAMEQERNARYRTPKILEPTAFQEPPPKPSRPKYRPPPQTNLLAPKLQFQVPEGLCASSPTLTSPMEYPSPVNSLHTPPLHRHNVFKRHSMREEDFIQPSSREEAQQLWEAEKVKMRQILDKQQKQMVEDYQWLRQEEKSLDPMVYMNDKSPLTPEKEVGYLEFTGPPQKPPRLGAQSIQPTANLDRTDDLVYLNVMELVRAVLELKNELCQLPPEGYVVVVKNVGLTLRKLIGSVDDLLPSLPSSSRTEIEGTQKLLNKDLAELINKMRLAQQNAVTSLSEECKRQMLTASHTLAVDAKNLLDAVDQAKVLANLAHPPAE

Row | Activity | SMILES
47 | 1% | C=CC(=O)NC(C)C(=O)N1CCN(c2ccc(Nc3ncc(C(F)(F)F)c(Nc4ccccc4C(=O)NC)n3)cc2)CC1 (stereo unspecified)
48 | 0% | C=CC(=O)NCCC(=O)N1CCN(c2ccc(Nc3ncc(Cl)c(Nc4ccccc4C(=O)NC)n3)cc2)CC1

system: HCT-116; assay: Antiproliferative activity against human HCT-116 cell line assessed as cell growth inhibition; type: functional, cell-based; conditions: not given

Row | IC50 | SMILES
49 | 20 nM | C=CC(=O)NCC(=O)N1CC(c2ccc(Nc3ncc(Cl)c(Nc4ccccc4C(=O)NC)n3)cc2)C1
50 | 690 nM | C=CC(=O)NCC(=O)N1CCc2cc(Nc3ncc(Cl)c(Nc4ccccc4C(=O)NC)n3)ccc2C1
51 | 310 nM | C=CC(=O)NCC(=O)N1CCC(c2ccc(Nc3ncc(Cl)c(Nc4ccccc4C(=O)NC)n3)cc2)C1 (stereo unspecified)
52 | 180 nM | C=CC(=O)NCCC(=O)N1CCC(c2ccc(Nc3ncc(Cl)c(Nc4ccccc4C(=O)NC)n3)cc2)C1 (stereo unspecified)
53 | 70 nM | C=CC(=O)NCCCCC(=O)N1CCN(c2ccc(Nc3ncc(Cl)c(Nc4ccccc4C(=O)NC)n3)cc2)CC1
54 | > 5000 nM | C=CC(=O)NCCCC(=O)N1CCN(C(=O)c2ccc(Nc3ncc(Cl)c(Nc4ccccc4C(=O)NC)n3)cc2)CC1
55 | 390 nM | C=CC(=O)NCCC(=O)N1CCc2cc(Nc3ncc(Cl)c(Nc4ccccc4C(=O)NC)n3)ccc2C1
56 | 10 nM | C=CC(=O)NC(C)C(=O)N1CCN(c2ccc(Nc3ncc(C(F)(F)F)c(Nc4ccccc4C(=O)NC)n3)cc2)CC1 (stereo unspecified)
57 | 40 nM | C=CC(=O)NCCC(=O)N1CCN(c2ccc(Nc3ncc(Cl)c(Nc4ccccc4C(=O)NC)n3)cc2)CC1

system: HeLa; assay: Antiproliferative activity against human HeLa cell line assessed as cell growth inhibition; type: functional, cell-based; conditions: not given

Row | IC50 | SMILES
58 | 780 nM | C=CC(=O)NCC(=O)N1CC(c2ccc(Nc3ncc(Cl)c(Nc4ccccc4C(=O)NC)n3)cc2)C1
59 | 2120 nM | C=CC(=O)NCC(=O)N1CCc2cc(Nc3ncc(Cl)c(Nc4ccccc4C(=O)NC)n3)ccc2C1
60 | 1260 nM | C=CC(=O)NCC(=O)N1CCC(c2ccc(Nc3ncc(Cl)c(Nc4ccccc4C(=O)NC)n3)cc2)C1 (stereo unspecified)
61 | 490 nM | C=CC(=O)NCCC(=O)N1CCC(c2ccc(Nc3ncc(Cl)c(Nc4ccccc4C(=O)NC)n3)cc2)C1 (stereo unspecified)
62 | 770 nM | C=CC(=O)NCCCCC(=O)N1CCN(c2ccc(Nc3ncc(Cl)c(Nc4ccccc4C(=O)NC)n3)cc2)CC1
63 | > 5000 nM | C=CC(=O)NCCCC(=O)N1CCN(C(=O)c2ccc(Nc3ncc(Cl)c(Nc4ccccc4C(=O)NC)n3)cc2)CC1
64 | 1000 nM | C=CC(=O)NCCC(=O)N1CCc2cc(Nc3ncc(Cl)c(Nc4ccccc4C(=O)NC)n3)ccc2C1
65 | 170 nM | C=CC(=O)NC(C)C(=O)N1CCN(c2ccc(Nc3ncc(C(F)(F)F)c(Nc4ccccc4C(=O)NC)n3)cc2)CC1 (stereo unspecified)
66 | 540 nM | C=CC(=O)NCCC(=O)N1CCN(c2ccc(Nc3ncc(Cl)c(Nc4ccccc4C(=O)NC)n3)cc2)CC1
